Values after ≈ are worked out from the molar mass of the structure shown.
How the values were obtained:
Assay type in all cases: cell-based
[1] = tested on: ATCC13883 strain (Klebsiella pneumoniae); assay: Checkerboard antibacterial synergistic activity test with polymyxin E (FIC); set-up: key: FIC≤0.5 synergy; 0.5–1 additive; 1–2 indifferent; ≥2 antagonism; details: combined with polymyxin E
How it was run: (§1)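 FIC values come from a microdilution checkerboard crossing polymyxin E against the test compound in MH medium, with uninoculated blanks included. Incubation lasts 16 h at 37° C. Scoring: synergy at FIC ≤0.5, additivity between 0.5 and 1, indifference between 1 and 2, antagonism at 2 or above.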

[2] = tested on: ATCC19606 strain (Acinetobacter baumannii); assay: as above; set-up: key: FIC≤0.5 synergy; 0.5–1 additive; 1–2 indifferent; ≥2 antagonism; details: combined with polymyxin E
How it was run: as §1

[3] = tested on: ATCC25922 strain (Escherichia coli); assay: as above; set-up: key: FIC≤0.5 synergy; 0.5–1 additive; 1–2 indifferent; ≥2 antagonism; details: combined with polymyxin E
How it was run: as §1

[4] = tested on: ATCC9027 strain (Pseudomonas aeruginosa); assay: as above; set-up: key: FIC≤0.5 synergy; 0.5–1 additive; 1–2 indifferent; ≥2 antagonism; details: combined with polymyxin E
How it was run: as §1

[5] = tested on: ATCC13883 strain (Klebsiella pneumoniae); assay: Broth microdilution, antibacterial activity of the compound used alone; details: for MIC: read-out: Antibacterial activity of the compound of Formula I, ATCC13883
Excerpt: (§2) The broth microdilution method was used to test the antibacterial effects of the compounds of the present invention against various Gram-negative bacterial strains when used alone.

[6] = tested on: ATCC19606 strain (Acinetobacter baumannii); assay: as above; details: for MIC: read-out: Antibacterial activity of the compound of Formula I, ATCC19606
Excerpt: as §2

[7] = tested on: ATCC25922 strain (Escherichia coli); assay: as above; details: for MIC: read-out: Antibacterial activity of the compound of Formula I, ATCC25922
Excerpt: as §2

[8] = tested on: ATCC9027 strain (Pseudomonas aeruginosa); assay: as above; details: for MIC: read-out: Antibacterial activity of the compound of Formula I, ATCC9027
Excerpt: as §2

| SMILES | Synergistic activity (FIC value) ATCC13883 [1] | Synergistic activity (FIC value) ATCC19606 [2] | Synergistic activity (FIC value) ATCC25922 [3] | Synergistic activity (FIC value) ATCC9027 [4] | Antibacterial activity of the compound of Formula I, ATCC13883 [5] | Antibacterial activity of the compound of Formula I, ATCC19606 [6] | Antibacterial activity of the compound of Formula I, ATCC25922 [7] | Antibacterial activity of the compound of Formula I, ATCC9027 [8] | MIC [5] | MIC [6] | MIC [7] | MIC [8] |
| --- | --- | --- | --- | --- | --- | --- | --- | --- | --- | --- | --- | --- |
| Cc1ccccc1Oc1cccc(-c2csc(N=C(N)N)n2)c1 [Compound I-91] | 0.19 | 0.04 | 0.26 | 0.52 | 128 µg/mL | 256 µg/mL | 128 µg/mL | 64 µg/mL | – | – | – | – |
| NC(N)=Nc1nc(-c2cccc(NC(=O)Nc3ccccc3)c2)cs1 [Compound I-131] | 0.09 | 0.31 | 0.14 | 0.06 | – | – | – | – | 256 µg/mL (≈ 726 µM) | 256 µg/mL (≈ 726 µM) | 256 µg/mL (≈ 726 µM) | 256 µg/mL (≈ 726 µM) |
| C[Si](C)(C)c1ccc(-c2csc(N=C(N)N)n2)cc1 [Compound I-22] | 0.38 | 0.75 | 0.5 | 0.63 | 256 µg/mL | 256 µg/mL | 256 µg/mL | 256 µg/mL | – | – | – | – |
| CSc1cc2cc(C)cc(C)n2c1-c1nc(N=C(N)N)oc1C [Compound I-128] | 0.16 | 0.03 | 0.18 | 0.28 | 256 µg/mL | 256 µg/mL | 256 µg/mL | 256 µg/mL | – | – | – | – |
| NC(N)=Nc1nc(-c2cccc(NC(=O)c3ccccc3)c2)cs1 [Compound I-109] | 1.25 | 1.25 | 0.27 | 1.25 | – | – | – | – | 256 µg/mL (≈ 759 µM) | 256 µg/mL (≈ 759 µM) | 256 µg/mL (≈ 759 µM) | 256 µg/mL (≈ 759 µM) |
| O=[N+]([O-])c1ccc(Oc2ccc(I)cc2I)cc1-c1c[se]c(N=C2NCCCN2)n1 [Compound I-158] | 0.16 | 0.03 | 0.18 | 0.28 | 256 µg/mL | 256 µg/mL | 256 µg/mL | 256 µg/mL | – | – | – | – |
| CC(C)c1cc(-c2nc(N=C3NCCCN3)sc2Cl)cc(C(C)C)c1O [Compound I-168] | 0.25 | 0.28 | 0.5 | 0.63 | 256 µg/mL | 256 µg/mL | 256 µg/mL | 256 µg/mL | – | – | – | – |
| Cc1oc(N=C(N)N)nc1-c1cccc2ccc(Cl)cc12 [Compound I-63] | 0.38 | 0.75 | 0.5 | 0.63 | 256 µg/mL | 256 µg/mL | 256 µg/mL | 256 µg/mL | – | – | – | – |
| O=C(NC1CC1)c1ccc(-c2nccs2)c(-c2nc(N=C3NCCCN3)sc2Br)c1 [Compound I-141] | 1.25 | 0.51 | 1.25 | 0.52 | 256 µg/mL | 256 µg/mL | 256 µg/mL | 256 µg/mL | – | – | – | – |
| CC(C)=CCOc1cccc(-c2csc(N=C(N)N)n2)c1 [Compound I-47] | 1.25 | 0.75 | 0.5 | 1.25 | – | – | – | – | 256 µg/mL (≈ 847 µM) | 256 µg/mL (≈ 847 µM) | 256 µg/mL (≈ 847 µM) | 256 µg/mL (≈ 847 µM) |
| Cc1sc(N=C2NCCCN2)nc1-c1cc(C(C)C)cc(C(C)C)c1 [Compound I-167] | 0.25 | 0.3 | 0.5 | 0.63 | 256 µg/mL | 256 µg/mL | 256 µg/mL | 256 µg/mL | – | – | – | – |
| Clc1sc(N=C2NCCCN2)nc1-c1cccc(Br)c1 [Compound I-175] | 1.25 | 0.5 | 1.25 | 1.25 | 256 µg/mL | 256 µg/mL | 256 µg/mL | 256 µg/mL | – | – | – | – |
| Cn1ccc2cccc(-c3c[se]c(N=C(N)N)n3)c21 [Compound I-72] | 0.31 | 0.25 | 0.56 | 0.5 | 256 µg/mL | 256 µg/mL | 256 µg/mL | 256 µg/mL | – | – | – | – |
| NC(N)=Nc1nc(-c2c(F)cccc2-c2nccs2)cs1 [Compound I-80] | 0.52 | 0.52 | 0.63 | 1.25 | 256 µg/mL | 256 µg/mL | 256 µg/mL | 256 µg/mL | – | – | – | – |
| CS(=O)(=O)c1ccc(Oc2ccccc2Cl)cc1-c1nc(N=C2NCCCN2)sc1Cl [Compound I-155] | 0.16 | 0.03 | 0.18 | 0.28 | 128 µg/mL | 256 µg/mL | 128 µg/mL | 64 µg/mL | – | – | – | – |
